According to patent publication US20260347364A1, “PYRAZOLO[4,3-F]QUINAZOLINE DERIVATIVES AS MODULATORS OF G12D MUTANT KRAS USEFUL FOR THE TREATMENT OF CANCER” (JAZZ PHARMACEUTICALS IRELAND LTD., priority 2023, published 2026):

How the values were obtained:
[1] = target: T1, KRAS G12D (Homo sapiens, UniProt P01116, G12D); assay: HTRF nucleotide exchange assay, KRAS G12D; type: biochemical; details: HTRF nucleotide exchange assay (NEA), class symbols
T1 construct: aa1-188 KRAS WT, HRAS WT, NRAS WT, or KRAS containing the G12D

[2] = target: T2, KRAS WT (Homo sapiens, UniProt P01116); assay: HTRF nucleotide exchange assay, KRAS WT; type: biochemical; details: HTRF nucleotide exchange assay (NEA), class symbols
T2 construct: aa1-188 KRAS WT

[3] = target: T3, KRAS G12V (Homo sapiens, UniProt P01116, G12V); assay: HTRF nucleotide exchange assay, KRAS G12V; type: biochemical; details: HTRF nucleotide exchange assay (NEA), class symbols
T3 construct: 4 nM KRAS; aa1-188 containing the G12V, G12C, G12A or G12S amino acid substitution
Procedure: (§1) HTRF Nucleotide Exchange Assay Method
The capacity of compounds to bind KRAS G12D, other KRAS mutants and wildtype RAS isoforms was quantified using a HTRF nucleotide exchange assay. Recombinant human RAS protein (2 nM; aa1-188 KRAS WT, HRAS WT, NRAS WT, or KRAS containing the G12D, G13D or Q61H amino acid substitutions, or 4 nM KRAS; aa1-188 containing the G12V, G12C, G12A or G12S amino acid substitution, an N-terminal 6× His-tag and leader sequence), and 2 nM Europium-labeled anti-6× His antibody were mixed in assay buffer (10 mM HEPES pH 7.3, 150 mM NaCl, 5 mM MgCl2, 0.05% BSA, 0.0025% NP-40 and 100 mM KF) with various concentrations of compound in a 384-well plate and a volume of 5 μL. After a 60-minute incubation at room temperature, 5 μl of 200 nM EDA-GTP-DY647P1 (diluted in assay buffer) was added to the plate. Following 30-minute incubation at room temperature, time-resolved fluorescence was measured on a PerkinElmer Envision plate reader. DMSO (0.3%) and unlabeled GDP (1 μM) or equivalent tool compound were used to generate the Max and Min assay signals, respectively. Data was analysed using a four-parameter logistic model to calculate IC50 values, with at least two independent replicates were performed for each compound. The results are presented as IC50s in Table 29 where “A” corresponds to an IC50 ≤10 nM, “B” to an IC50 >10 nM up to 100 nM, “C” is >100 nM up to 10 μM, “D” represents <49% inhibition at 10 μM and ND=not determined: […]

[4] = Metabolic stability in human liver hepatocytes (substrate depletion, intrinsic clearance); type: in vitro ADME; details: 37° C., Williams E Media, LC-MS/MS depletion
Text: Determining the in vitro metabolic stability of a new chemical entity (NCE) is a very useful tool within drug discovery. A metabolic stability study will determine the in vitro intrinsic clearance (CLint) of a compound. The CLint value represents a measure of enzyme activity toward an NCE and is independent of other physiological factors such as blood flow. Determination of CLint within drug discovery helps to identify metabolic liabilities within a compound series, and ultimately assist in the identification of compounds with improved metabolic stability. The CLint value determined in vitro can be used to predict in vivo clearance (using species specific scaling factors) in pre-clinical species and ultimately in human. The liver is the primary organ involved in drug metabolism, of which there are two pathways-Phase I and Phase II. Phase I metabolism is primarily oxidative with the majority of these oxidations catalysed by cytochrome P450 enzymes (CYPs) which are located in the smooth endoplasmic reticulum (ER) in the liver. Phase II metabolism is catalysed by various conjugative enzymes which are located mainly in the ER and the cytosol. The in vitro systems used to study drug metabolism are mainly subcellular fractions such as liver microsomes or whole cells (hepatocytes) isolated from the liver. Hepatocytes, being whole cells, contain both Phase I and Phase II metabolizing enzymes and produce their own cofactors. This assay determines the metabolic stability of test compounds in human liver hepatocytes using the substrate depletion approach. The lower limit of the assay is a T1/2 >462 min and a CLint […]. Therefore the upper limit of the assay is 277 μL/min/106 cells. Any CLint value higher than this should be given an out of range value. Hepatocytes were plated in Williams E Media with added L-glutamine, compounds were added as 1 mM DMSO solution and incubated at 37° C. Compound depletion was measured by LC-MS/MS at multiple time points following quenching with cold acetonitrile. CLint was calculated from the following equation:
CLint(μl/min/106cells)=(In(2)/T1/2)*1000/cell density(10^6cells/mL)

[5] = target: T4, KRAS G12S (Homo sapiens, UniProt P01116, G12S); assay: HTRF nucleotide exchange assay, KRAS G12S; type: biochemical; details: HTRF nucleotide exchange assay (NEA), class symbols
T4 construct: 4 nM KRAS; aa1-188 containing the G12V, G12C, G12A or G12S amino acid substitution
Procedure: as §1
(§2) The capacity of compounds to bind KRAS G12D, other KRAS mutants and wildtype RAS isoforms was quantified using a HTRF nucleotide exchange assay. Recombinant human RAS protein (2 nM; aa1-188 KRAS WT, HRAS WT, NRAS WT, or KRAS containing the G12D, G13D or Q61H amino acid substitutions, or 4 nM KRAS; aa1-188 containing the G12V, G12C, G12A or G12S amino acid substitution, an N-terminal 6× His-tag and leader sequence), and 2 nM Europium-labeled anti-6× His antibody were mixed in assay buffer (10 mM HEPES pH 7.3, 150 mM NaCl, 5 mM MgCl2, 0.05% BSA, 0.0025% NP-40 and 100 mM KF) with various concentrations of compound in a 384-well plate and a volume of 5 μL. After a 60-minute incubation at room temperature, 5 μl of 200 nM EDA-GTP-DY647P1 (diluted in assay buffer) was added to the plate. Following 30-minute incubation at room temperature, time-resolved fluorescence was measured on a PerkinElmer Envision plate reader. DMSO (0.3%) and unlabeled GDP (1 μM) or equivalent tool compound were used to generate the Max and Min assay signals, respectively. Data was analysed using a four-parameter logistic model to calculate IC50 values, with at least two independent replicates were performed for each compound. […]

[6] = target: T5, KRAS G12A (Homo sapiens, UniProt P01116, G12A); assay: HTRF nucleotide exchange assay, KRAS G12A; type: biochemical; details: HTRF nucleotide exchange assay (NEA), class symbols
T5 construct: 4 nM KRAS; aa1-188 containing the G12V, G12C, G12A or G12S amino acid substitution
Procedure: as §1, §2

T1 sequence (P01116 1-188 isoform P01116-2 G12D): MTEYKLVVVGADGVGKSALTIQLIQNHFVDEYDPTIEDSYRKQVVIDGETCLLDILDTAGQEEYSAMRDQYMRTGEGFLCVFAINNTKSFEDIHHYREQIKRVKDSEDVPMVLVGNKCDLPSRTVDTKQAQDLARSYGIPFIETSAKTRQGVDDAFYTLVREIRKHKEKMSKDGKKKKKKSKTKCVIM
T3 sequence (P01116 1-188 isoform P01116-2 G12V): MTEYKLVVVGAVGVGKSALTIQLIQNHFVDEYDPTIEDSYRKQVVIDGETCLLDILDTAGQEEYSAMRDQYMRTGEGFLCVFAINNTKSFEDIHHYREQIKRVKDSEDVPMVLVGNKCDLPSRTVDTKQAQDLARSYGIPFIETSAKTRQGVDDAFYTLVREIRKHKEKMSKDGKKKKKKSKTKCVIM
T2 sequence (P01116 1-188 isoform P01116-2): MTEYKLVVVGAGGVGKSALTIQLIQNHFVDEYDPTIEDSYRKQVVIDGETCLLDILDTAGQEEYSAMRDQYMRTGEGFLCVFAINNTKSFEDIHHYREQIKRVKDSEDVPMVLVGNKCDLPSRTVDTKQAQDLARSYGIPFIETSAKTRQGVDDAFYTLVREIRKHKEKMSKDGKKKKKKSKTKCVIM
T5 sequence (P01116 1-188 isoform P01116-2 G12A): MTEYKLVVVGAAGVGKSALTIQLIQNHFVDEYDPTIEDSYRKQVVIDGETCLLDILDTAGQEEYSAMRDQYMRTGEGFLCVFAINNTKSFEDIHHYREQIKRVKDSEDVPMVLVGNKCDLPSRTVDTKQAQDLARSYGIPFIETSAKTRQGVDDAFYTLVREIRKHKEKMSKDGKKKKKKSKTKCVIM
T4 sequence (P01116 1-188 isoform P01116-2 G12S): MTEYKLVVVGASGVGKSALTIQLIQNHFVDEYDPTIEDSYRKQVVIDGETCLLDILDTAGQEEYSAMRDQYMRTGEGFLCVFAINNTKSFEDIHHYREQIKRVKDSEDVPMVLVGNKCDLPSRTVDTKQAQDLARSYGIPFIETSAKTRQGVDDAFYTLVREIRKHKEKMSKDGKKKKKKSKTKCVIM

| IC50 [1] [nM] | IC50 [2] [nM] | IC50 [3] [nM] | hepatocyte CLint [4] [µL/min/1e6 cells] | IC50 [5] [nM] | IC50 [6] [nM] | SMILES |
| --- | --- | --- | --- | --- | --- | --- |
| ≤ 10 | ≤ 10 | ≤ 10 | – | – | – | CCc1c(F)ccc2cc(O)cc(-c3cc4nc(OC[C@@]56CCCN5C[C@H](F)C6)nc(N5CCCC(C)(O)C5)c4c4cn(C)nc34)c12 (mixture of isomers) [Example 7, 1-[4-(8-ethyl-7-fluoro-3-hydroxy-1-naphthyl)-2-methyl-7-[[rac-(2R,8S)-2-fluoro-1,2,3,5,6,7-hexahydropyrrolizin-8-yl]methoxy]pyrazolo[4,3-f]quinazolin-9-yl]-3-methyl-piperidin-3-ol] |
| ≤ 10 | ≤ 10 | – | 54.2 | – | – | C#Cc1c(F)ccc2cc(O)cc(-c3cc4nc(OC[C@@]56CCCN5C[C@H](F)C6)nc(N5CCCOCC5)c4c4cn(C)nc34)c12 [Example 2, 5-ethynyl-6-fluoro-4-[2-methyl-9-(1,4-oxazepan-4-yl)-7-[[(2R,8S)-2-fluoro-1,2,3,5,6,7-hexahydropyrrolizin-8-yl]methoxy]pyrazolo[4,3-f]quinazolin-4-yl]naphthalen-2-ol] |
| ≤ 10 | ≤ 10 | ≤ 10 | – | 10 to 100 | ≤ 10 | CCc1c(F)ccc2cc(O)cc(-c3c(C)c4nc(OC[C@@]56CCCN5C[C@H](F)C6)nc(N5CCOCC(C)(O)C5)c4c4cn(C)nc34)c12 (mixture of isomers) [Example 105, 4-[4-(8-ethyl-7-fluoro-3-hydroxy-1-naphthyl)-2,5-dimethyl-7-[rac-(2R)-2-fluoro-1,2,3,5,6,7-hexahydropyrrolizin-8-yl]methoxy]pyrazolo[4,3-f]quinazolin-9-yl]-6-methyl-1,4-oxazepan-6-ol] |
| 10 to 100 | 10 to 100 | – | 47.8 | – | – | C#Cc1c(F)ccc2cc(O)cc(-c3cc4nc(OC[C@@]56CCCN5C[C@H](F)C6)nc(N5CCCCCC5)c4c4cn(C)nc34)c12 [Example 12, 4-[9-(azepan-1-yl)-2-methyl-7-[[(2R,8S)-2-fluoro-1,2,3,5,6,7-hexahydropyrrolizin-8-yl]methoxy]pyrazolo[4,3-f]quinazolin-4-yl]-5-ethynyl-6-fluoro-naphthalen-2-ol] |
| – | – | – | 95.6 | – | – | C#Cc1c(F)ccc2cc(O)cc(-c3ncc4c(N5CCCCCC5)nc(OC[C@@]56CCCN5C[C@H](F)C6)nc4c3F)c12 [WO2022248885 Example 84, reference compound] |
| – | – | – | 94.6 | – | – | C#Cc1c(F)ccc2cc(O)cc(-c3ccc4c(N5CCCOCC5)nc(OC[C@@]56CCCN5C[C@H](F)C6)nc4c3F)c12 [WO2022258974 Example 26, reference compound] |
| ≤ 10 | 100 to 10000 | 10 to 100 | – | – | – | CCc1c(F)ccc2cc(O)cc(-c3cc4nc(OC[C@@]56CCCN5C[C@H](F)C6)nc(N5CC6CCC5CN6)c4c4cn(C)nc34)c12 (stereo partly drawn) [Example 14, 4-[9-(2,5-diazabicyclo[2.2.2]octan-2-yl)-2-methyl-7-[[(2R,8S)-2-fluoro-1,2,3,5,6,7-hexahydropyrrolizin-8-yl]methoxy]pyrazolo[4,3-f]quinazolin-4-yl]-5-ethyl-6-fluoro-naphthalen-2-ol] |
| 100 to 10000 | 100 to 10000 | – | 42.5 | – | – | CCc1c(F)ccc2cc(O)cc(-c3cc4nc(OC[C@@]56CCCN5C[C@H](F)C6)nc(N5CCCCCC5)c4c4cn(C)nc34)c12 [Example 9, 4-[9-(azepan-1-yl)-2-methyl-7-[[(2R,8S)-2-fluoro-1,2,3,5,6,7-hexahydropyrrolizin-8-yl]methoxy]pyrazolo[4,3-f]quinazolin-4-yl]-5-ethyl-6-fluoro-naphthalen-2-ol] |
| ≤ 10 | ≤ 10 | – | – | – | – | C#Cc1c(F)ccc2cc(O)cc(-c3cc4nc(OC[C@@]56CCCN5C[C@H](F)C6)nc(N5CCCn6nc(C(=O)N(C)C)cc6C5)c4c4cn(C)nc34)c12 [Example 65, 5-[4-(8-ethynyl-7-fluoro-3-hydroxy-1-naphthyl)-2-methyl-7-[[(2R,8S)-2-fluoro-1,2,3,5,6,7-hexahydropyrrolizin-8-yl]methoxy]pyrazolo[4,3-f]quinazolin-9-yl]-N,N-dimethyl-4,6,7,8-tetrahydropyrazolo[1,5-a][1,4]diazepine-2-carboxamide] |
| 10 to 100 | 10 to 100 | – | – | – | – | C#CC1(O)CCCN(c2nc(OC[C@@]34CCCN3C[C@H](F)C4)nc3cc(-c4cc(O)cc5ccc(F)c(CC)c45)c4nn(C)cc4c23)C1 (stereo partly drawn) [Example 129, 1-[4-(8-ethyl-7-fluoro-3-hydroxy-1-naphthyl)-2-methyl-7-[[(2R,8S)-2-fluoro-1,2,3,5,6,7-hexahydropyrrolizin-8-yl]methoxy]pyrazolo[4,3-f]quinazolin-9-yl]-3-ethynyl-piperidin-3-ol] |
| ≤ 10 | ≤ 10 | – | – | – | – | CCc1c(F)ccc2cc(O)cc(-c3cc4nc(OC[C@@]56CCCN5C[C@H](F)C6)nc(N5CC6CC(O)C(C6)C5)c4c4cn(C)nc34)c12 (stereo partly drawn) [Example 124, 3-[4-(8-ethyl-7-fluoro-3-hydroxy-1-naphthyl)-2-methyl-7-[[(2R,8S)-2-fluoro-1,2,3,5,6,7-hexahydropyrrolizin-8-yl]methoxy]pyrazolo[4,3-f]quinazolin-9-yl]-3-azabicyclo[3.2.1]octan-6-ol] |
| ≤ 10 | 10 to 100 | – | – | – | – | CCc1c(F)ccc2cc(O)cc(-c3c(F)c4nc(OCC5(CN6CC(F)(F)C6)CC5)nc(N5CCOCC(C)(O)C5)c4c4cn(C)nc34)c12 (stereo not drawn) [Example 191, 4-[7-[[1-[(3,3-difluoroazetidin-1-yl)methyl]cyclopropyl]methoxy]-4-(8-ethyl-7-fluoro-3-hydroxy-1-naphthyl)-5-fluoro-2-methyl-pyrazolo[4,3-f]quinazolin-9-yl]-6-methyl-1,4-oxazepan-6-ol] |
| ≤ 10 | ≤ 10 | – | – | – | – | CCc1c(F)ccc2cc(O)cc(-c3c(C)c4nc(OCC5(C)CC(OC)CN5)nc(N5CCOCC(C)(O)C5)c4c4cn(C)nc34)c12 (stereo not drawn) [Example 137, 4-[4-(8-ethyl-7-fluoro-3-hydroxy-1-naphthyl)-7-[(4-methoxy-2-methyl-pyrrolidin-2-yl)methoxy]-2,5-dimethyl-pyrazolo[4,3-f]quinazolin-9-yl]-6-methyl-1,4-oxazepan-6-ol] |
| ≤ 10 | 10 to 100 | – | – | – | – | Cc1cc2[nH]ncc2c(-c2cc3nc(OC[C@@]45CCCN4C[C@H](F)C5)nc(N4CCCn5nc(C(=O)N(C)C)cc5C4)c3c3cn(C)nc23)c1C(F)(F)F [Example 84, 5-[7-[[(2R,8S)-2-fluoro-1,2,3,5,6,7-hexahydropyrrolizin-8-yl]methoxy]-2-methyl-4-[6-methyl-5-(trifluoromethyl)-1H-indazol-4-yl]pyrazolo[4,3-f]quinazolin-9-yl]-N,N-dimethyl-4,6,7,8-tetrahydropyrazolo[1,5-a][1,4]diazepine-2-carboxamide] |
| 100 to 10000 | 100 to 10000 | – | – | – | – | CCc1c(F)ccc2cc(O)cc(-c3cc4nc(OC[C@@]56CCCN5C[C@H](F)C6)nc(N5CCC(C)(OC)CC5)c4c4cn(C)nc34)c12 [Example 119, 5-ethyl-6-fluoro-4-[9-(4-methoxy-4-methyl-1-piperidyl)-2-methyl-7-[[(2R,8S)-2-fluoro-1,2,3,5,6,7-hexahydropyrrolizin-8-yl]methoxy]pyrazolo[4,3-f]quinazolin-4-yl]naphthalen-2-ol] |
